Marks after values point to notes of the source that are not given here.
Columns and labels:
LSR = LSR activity (oleate-induced 125I-LDL binding, uptake, degradation) in primary cultures of rat hepatocytes; type: cell-based; conditions: for oleate-induced LDL degradation / oleate-induced LDL binding: primary rat hepatocytes; for oleate-induced LDL degradation: 22-mer peptides; for oleate-induced LDL binding: peptide concentrations <50 μg/mL
Experimental: FIGS. 6A, 6B, and 6C show the effect of leptin on ^125I-LDL and ^125I-chylomicron binding to LSR in primary cultures of rat hepatocytes. For FIG. 6A, primary cultures of rat hepatocytes (48 hours after plating) were incubated at 37° C. for 30 min in the absence (□) or presence (▪) of 50 ng/mL leptin in Buffer A, followed by a 20 min incubation at 37° C. with 0.5 mM oleate. The cells were then washed with ice-cold PBS, precooled for 10 min, and then incubated for 1 h at 4° C. with increasing concentrations of ^125I-LDL in Buffer A. Cells were washed, were lysed in 0.1 N NaOH and were counted for radioactivity. Results are shown as the mean of duplicate determinations. For FIG. 6B, primary cultures of rat hepatocytes were incubated at 37° C. for 30 min with or without 20 ng/mL leptin followed by incubation at 37° C. for 4 h with 6 μg protein/mL ^125I-chylomicrons in the absence or presence of 0.5 mM oleate in Buffer A. The cells were then washed and the ^125I-chylomicrons bound to the cell surface were released into the media by incubation with 10 mM suramin. The media was recovered and the radioactivity was measured. Results are shown as the mean±SD of six determinations. Fir FIG. 6C, after incubation at 37° C. for 30 min with 50 ng/mL leptin, the cells were incubated at room temperature for 30 min with 200 μg IgG/mL antibodies directed against rat LSR protein or irrelevant IgG. The amount of ^125I-chylomicrons bound was determined, and results are shown as means±SD of triplicate (irrelevant) or quadruplicate (anti-LSR) determinations.
FIGS. 7A and 7B show a comparison of the effect of human and mouse leptin on LSR activity in rat hepatocytes and on postprandial increase in plasma TG in db^Pas/db^Pas mice. For FIG. 7A, primary cultures of rat hepatocytes were incubated 30 min at 37° C. without (open bar) or with 10 ng/mL recombinant human (solid bar) or mouse (hatched bar) leptin in Buffer A. Oleate (0.5 mM) and ^125I-LDL (20 μg/mL) were added and the cells were incubated 2 h at 37° C. The media were removed and were analyzed for TCA-soluble degradation products. The mean of duplicate determinations is shown. For FIG. 7B, db^Pas/db^Pas mice were given a test meal as previously described, followed immediately by injection i.p. of saline (open bar, n=4), human leptin (1 μg/animal; solid bar, n=3) or mouse leptin (0.25 μg/animal; hatched bar; n=3). The data represent the difference in TG concentrations measured at t=0 and the average of the concentrations at 3 and 4 hours. Results are shown as mean±SEM.
Cells were incubated 30 min at 37° C. with increasing concentrations of mouse (▪) or human (●) leptin peptide. Following this, 0.5 mM oleate and 20 μg/mL ^125I-LDL were added and the cells were further incubated for 2 h at 37° C. The cells were washed, and the amount of oleate-induced ^125I-LDL bound and degraded was measured as described previously (Bihain, B. E., and Yen, F. T. (1992). Free fatty acids activate a high-affinity saturable pathway for degradation of low-density lipoproteins in fibroblasts from a subject homozygous for familial hypercholesterolemia. Biochemistry 31, 4628-4636).
FIGS. 11A and 11B show the effect of mouse leptin (FIG. 11A) or leptin peptide (FIG. 11B) on postprandial plasma TG response in ob/ob mice. […] Postprandial triglyceridemia was measured as described previously. Each point represents the mean±SEM (A: saline, n=8, leptin, n=7; leptin peptide: saline, n=8, leptin, n=8). […] Primary cultures of rat hepatocytes were incubated 30 min at 37° C. with increasing concentrations of mouse leptin peptide. Oleate (0.5 mM) and ^125I-LDL (20 μg/mL) were added and the cells were incubated 2 h at 37° C. After washing, the amount of 125I-LDL bound to the cell surface was measured as described in the Examples section herein. […]

ob/ob mice = experiment: Postprandial plasma TG response after high-fat test meal in ob/ob mice; type: in vivo, mouse; conditions: for postprandial lipemic response: single subcutaneous injection of 50 ng
Experimental: FIGS. 11A and 11B show the effect of mouse leptin (FIG. 11A) or leptin peptide (FIG. 11B) on postprandial plasma TG response in ob/ob mice. […] Postprandial triglyceridemia was measured as described previously. Each point represents the mean±SEM (A: saline, n=8, leptin, n=7; leptin peptide: saline, n=8, leptin, n=8). […] Primary cultures of rat hepatocytes were incubated 30 min at 37° C. with increasing concentrations of mouse leptin peptide. Oleate (0.5 mM) and ^125I-LDL (20 μg/mL) were added and the cells were incubated 2 h at 37° C. After washing, the amount of 125I-LDL bound to the cell surface was measured as described in the Examples section herein.
Mice that were fasted for 2-3 hours were gavage-fed 300 μL of a test meal consisting of 60% fat (37% saturated, 27% mono-, and 36% polyunsaturated fatty acids), 20% protein and 20% carbohydrate, and providing 56 kcal of energy/kg (1.5 g butter, 1.5 g sunflower oil, 2.5 g nonfat dry milk, 2.5 g sucrose and 3 ml water). Immediately after the meal, the animals were injected intravenously (db/db) or intraperitoneally (db^Pas/db^Pas) with either 200 μL physiological saline or 200 μL of the same solution containing recombinant mouse leptin. At selected time intervals, 20 μL of blood were collected from the orbital (db^Pas/db^Pas) or tail (db/db) vein into ice-cold microfuge tubes containing 4 mmol/L EDTA. Plasma was obtained by centrifugation at 2500 rpm for 20 min at 4° C., and was frozen as aliquots at −80° C. before analysis. TG concentrations were determined using a commercially available enzymatic kit with controls included in each assay (Precinorm L, Roche-Boehringer Mannheim; Lyotrol N, BioMérieux).
The inhibition of the intestinal absorption of dietary lipids by leptin was also investigated. Overnight-fasted ob/ob mice were gavage-fed a high fat test meal. […] Blood samples were taken at 2 and 3 h after the test meal, and plasma TG concentrations were measured (see Table, below). […]

| oleate-induced LDL degradation (LSR) | oleate-induced LDL binding (LSR) | oleate-induced binding of 125I-LDL (LSR; primary cultures of rat hepatocytes (FIG. 11B insert)) | Substance | Plasma TG 2-3 hours after test meal (ob/ob mice; i.v. 0.5 μg recombinant mouse leptin and/or 2.5 mg lactoferrin, mean ± SD) | postprandial lipemic response (ob/ob mice) |
| --- | --- | --- | --- | --- | --- |
| inhibitory effect | increased | – | CHLPWASGLETLDSLGGVLEAS (listed as Homo sapiens) [human peptide, human leptin fragment residues 117-138, 22-mer] | – | – |
| – | – | – | leptin: plasma protein of 16 kDa produced by adipocytes; recombinant human or mouse leptin, species depends on the experiment | 0.79 ± 0.1* mg/mL | decreases the postprandial lipemic response |
| inhibitory effect | increased | stimulate | CSLPQTSGLQKPESLDGVLEAS (listed as Mus musculus) [mouse peptide, mouse leptin fragment residues 117-138, 22-mer] | – | reduced the postprandial lipemic response |

From patent publication US7470669B2, “Isolated polypeptide comprising a leptin fragment” (Serono Genetics Institute, S.A., priority 1999, dated 2008)
